Reference: patent US12391799B2, “Peptoid polymers and methods of use” (X-Therma, Inc., priority 2017, dated 2025)
“Also recorded” adds a separate entry of the source.

Columns and labels:
K562 cells [1] = experiment: Cell toxicity assay in K562 cell culture; format: cell-based; conditions: 1% concentration, 24 hours at 37° C. and 5% CO2
Experimental: The cytotoxicity of several compounds were evaluated using a typical cell toxicity assay in K562 cell culture. […] As a positive control, some cells were incubated without any peptoid polymer (DMEM). For a negative control, cells were incubated with DMSO (DMEM+10% DMSO).

[2] = Vitrification screening assay (critical EG concentration); format: physicochemical; conditions: lowest EG for complete vitrification of 20 μL sample, 5 mg/mL peptoid in formulation, liquid nitrogen immersion
Experimental: As another means of increasing the throughput of library analysis, a vitrification screening assay was performed to evaluate anti-icing efficacy. For these experiments the compounds named “Compound 11,” “Compound 12,” “Compound 25,” Compound 26,” “Compound 27,” “Compound 28,” “Compound 60,” “Compound 62,” “Compound 63,” “Compound 64,” “Compound 69,” “Compound 70,” “Compound 71,” “Compound 72,” “Compound 73,” “Compound 74,” “Compound 75,” “Compound 76,” “Compound 77,” “Compound 78,” “Compound 81,” “Compound 82,” “Compound 83,” “Compound 84,” and “Compound 85” were tested.
For these experiments, 20 μL samples were flash frozen by liquid immersion in liquid nitrogen. Ethylene glycol (EG) concentrations between 5% and 25% (v/v) were used. A concentration of 5 mg/mL of peptoid polymer compounds were used in formulation. Table 12 lists the lowest concentration of EG necessary to bring about complete vitrification of a 20 μL sample with peptoid polymer in formulation, referred to as the “critical EG concentration.” A sample of formulation without the presence of a peptoid polymer was only able to bring about vitrification at 20% or more EG. Peptoid polymers of interest were able to bring about vitrification within formulas containing EG when the concentration of EG was lower than 20%.

[3] = Crystallographic x-ray diffraction (XRD) ice crystal formation assay; format: physicochemical
Experimental: In order to increase the throughput of library analysis, a crystallographic x-ray diffraction (XRD) technique was used to evaluate ice crystal formation. For these experiments, the compounds named “Compound 2,” “Compound 8,” “Compound 10,” “Compound 11,” “Compound 12,” “Compound 13,” and “Compound 58” were tested. Compound 58 is similar to Compound 12, except that an arginine amino acid has been appended to the N-terminal end.
For these experiments, EG concentrations between 15% and 30% (v/v) were used. Typically, EG, DMSO, and other cryoprotectants are used during XRD sample analysis at concentrations of 35-40% (v/v) to vitrify solutions and avoid diffraction interference from ice crystals. Concentrations of 1 and 5 mg/mL of the peptoid and peptoid-peptide compounds were used. FIGS. 3A, 3B, and 3C illustrate exemplary XRD data under conditions of complete vitrification, partial vitrification with the presence of cubic ice, and freezing ([…]), respectively. FIG. 3D provides ice rings scores for a variety of EG concentrations and two concentrations of Compounds 2, 8, and 12.
“IceRing1” and “IceRing2” refer to ice formation scores, which range between 0 (no ice formation) and 15 (large ice formation).

[4] = Larger volume flash freeze / rewarm / −20° C. storage assay; format: physicochemical; conditions: 22.5% EG
Experimental: In order to test the usefulness of peptoid polymers at larger scales, experiments were performed using solution volumes that are similar to volumes used for standard egg and stem cell preservation. For these experiments, two samples, one containing 22.5% EG and buffer only, and another containing 22.5% EG and 5 mg/ml (0.5% w/v) of Compound 12 and buffer, were flash frozen in liquid nitrogen. […] The rewarming of the solutions in a 37° C. water bath led to an unexpected and beneficial result. The Compound 12 solution bypassed devitrification in less than 2 seconds upon rewarming (FIG. 6B, right), whereas chunks of ice were seen floating in the control sample (FIG. 6B, left) after 20 seconds. Condensation was seen on each of the tubes because the tubes were actually still much below room temperature.

K562 cells [5] = experiment: K562 viability after storage at −20° C. for 3 days (Alamar Blue); format: cell-based; conditions: 1% peptoid in XT Formula, K562 stored at −20° C. for 3 days, vs. XT Formula alone
Experimental: Several compounds were examined in XT Formula at 1% concentration (i.e., 1% peptoid polymer concentration) for their ability to increase the viability of cells subjected to super-cooled storage. XT Formula contains HTK buffer, among other components. In particular, the effects of these compounds on the viability of K562 cells stored at −20° C. for 3 days were evaluated. An Alamar Blue assay was used to assess cell viability 7 days after stored cells were thawed.

HEK 293 cells = experiment: Cryopreservation assay, flash freezing in liquid nitrogen, Calcein AM viability; format: cell-based, human
Experimental: Initial cryopreservation assays were performed using very simple solutions, with and without the addition of Compound 12, in order to minimize confounding outside factors. For this first set of experiments, two sample solutions were prepared. The first sample solution contained simple buffer and ethylene glycol (EG) at a concentration of 22.5% (v/v), and the second sample solution contained simple buffer, EG (22.5% (v/v)), and 5 mg/mL (0.5% (w/v)) of Compound 12.
HEK 293 cells were grown until 70% confluent, then treated with trypsin to remove adhesion proteins and yield free floating cells. Cells were counted using a hemocytometer and sample cell concentrations were adjusted to final concentrations of 10,000 cells per microliter. Cells were then compressed into tight pellets by centrifugation, and each sample was subsequently mixed with 20 μL of one of the sample solutions. Samples were then flash frozen by immersion in liquid nitrogen, followed by rewarming in a 37° C. water bath. After the freeze-thaw process, cells were suspended in a 400× volume of culture media for recovery. The positive control sample was treated with culture media at 37° C. and not subjected to the freeze-thaw process. The negative control sample was treated with culture media only during the freeze-thaw process. After recovery, cells were stained with Calcein AM for 30 minutes and cell viability was measured using a fluorescence plate reader.
A second set of experiments was performed to evaluate the cryopreservation potential of a formulation that contained 5 mg/mL of Compound 12 plus a mixture of glycols, disaccharides, and a general buffer. Post-thaw survival following vitrification in liquid nitrogen was evaluated as described above.

HEK 293 cell line = experiment: Cell-based cytotoxicity assay (MTT); set-up: species or system human
Experimental: A Tecan Genesis Robotic Workstation was used to prepare solutions in 96- and 384-well plates. Solutions contained culture media, buffers, a cryoprotectant composition (Compound 12) or DMSO. Solutions were adjusted to the desired pH. Serial dilutions were performed to obtain solutions containing various concentrations of Compound 12 and DMSO. Control experiments were performed using only culture media.
For these experiments, cells were seeded at low density (i.e., 10% confluence), exposed to solutions containing Compound 12 or DMSO, and placed in a 37° C. incubator. The cells were allowed to grow until control cells that were treated only with empty vehicle approached 70% confluence (typically about 3 to 5 days). Assessment for compound cytotoxicity was via MTT assay.

K562 cells [6] = experiment: K562 survival after storage at −80° C. for 3 days (Alamar Blue); format: cell-based; conditions: 1% peptoid in XT Formula, K562 stored at −80° C. for 3 days
Experimental: Several compounds were examined in XT Formula at 1% concentration (i.e., 1% peptoid polymer concentration) for their effects on the cryopreservation of cells. In particular, the effects of these compounds on the survival of K562 cells stored at −80° C. for 3 days were evaluated. An Alamar Blue assay was used to assess cell survival 1 day after stored cells were thawed. A 10% DMSO formula and DMEM cell media only were used as controls.

[7] = 160 mM ethylene glycol in MilliQ water, slow cooled, −20° C., one hour
Experimental: In this experiment, four water-based samples were prepared in capillary tubes containing MilliQ purified water. One sample contained only water, and another sample contained 160 mM ethylene glycol (EG). The other two samples each contained a peptoid polymer at 9 mM.
After sample preparation, all samples were slow cooled and incubated at −20° C. on a Peltier cooled plate. After one hour, samples were removed and immediately photographed using a digital camera attached to a 180× Stereo Zoom microscope (FIG. 2A).

| SMILES | cytotoxicity (cell persistence) (K562 cells [1]) | Critical Ethylene Glycol Concentration [2] | ice formation after flash freezing (XRD) ([3]; 5 mg/mL (0.5% (w/v)), EG 17.5% (v/v) in water, stream of liquid nitrogen vapor) | anti-icing effect in comparison to EG at the same molar concentration ([3]; 5 mg/mL with EG 17.5% (v/v)) | reduction of necessary EG concentration while preventing ice formation (XRD ice ring scores) ([3]; 1 and 5 mg/mL peptoid, EG 15-30% (v/v)) | vitrification on flash freezing in liquid nitrogen ([4]; 5 mg/ml (0.5% w/v) and buffer) | state after overnight in −20° C. freezer ([4]; 100 μL sample, 5 mg/ml) | cell viability 7 days after thaw (K562 cells [5]) | post-thaw survival of the cells (HEK 293 cells; formulation: 5 mg/mL of Compound 12 plus a mixture of glycols, disaccharides, and a general buffer, vitrification in liquid nitrogen, 16 hours post-thaw) | vitrification of cell sample during the freezing process (HEK 293 cells; simple buffer, EG 22.5% (v/v), 5 mg/mL) | cell survival after freeze-thaw (HEK 293 cells; simple buffer, EG 22.5% (v/v), 5 mg/mL vs. same solution without compound, viability 12 hours post-thaw) | devitrification of cell sample on rewarming (HEK 293 cells; simple buffer, EG 22.5% (v/v), 5 mg/mL vs. sample lacking compound) | toxicity by MTT assay (HEK 293 cell line; at 0.5% w/v, the concentration that prevents ice formation) | toxicity by MTT assay (HEK 293 cell line; at concentrations four times greater than 0.5% w/v) | toxicity by MTT assay (HEK 293 cell line; serial dilutions in culture media, 37° C., about 3 to 5 days) | cell survival 1 day after thaw (K562 cells [6]) | ice crystal formation in capillary tube [7] |
| --- | --- | --- | --- | --- | --- | --- | --- | --- | --- | --- | --- | --- | --- | --- | --- | --- | --- |
| CCC(C)NCC(=O)N(CC(=O)N(CC(=O)N(CC(=O)N(CC(=O)N(CC(=O)N(CC(=O)N(CC(=O)N(CC(=O)N(CC(N)=O)C(C)CC)C(C)CC)CC(C)O)CC(C)O)C(C)CC)C(C)CC)CC(C)O)CC(C)O)C(C)CC (stereo not drawn) [Compound 12, Nsb-Nsb-Nhp-Nhp-Nsb-Nsb-Nhp-Nhp-Nsb-Nsb] | persisted about as well as cell incubated in cell culture media alone (DMEM) | 15.0% (ν/ν) | ice-free after flash freezing | 500 times | significantly reduced necessary EG concentrations while preventing ice formation | complete vitrification with no ice formation; also recorded: vitrified | remained unfrozen | improved cell viability compared to XT Formula alone | 98% | complete vitrification without ice formation | greatly improved cell survival | bypassed much more rapidly | did not show toxicity | did not show significant toxicity | did not significantly deviate from the that of culture media alone |  |  |
| CCC(C)NCC(=O)N(CC(=O)N(CCCN1CCCC1=O)CC(=O)N(CCCN1CCCC1=O)CC(=O)N(CC(=O)N(CC(=O)N(CCCN1CCCC1=O)CC(=O)N(CCCN1CCCC1=O)CC(=O)N(CC(=O)N(CC(N)=O)C(C)CC)C(C)CC)C(C)CC)C(C)CC)C(C)CC (stereo not drawn) [Compound 76, Nsb-Nsb-Nop-Nop-Nsb-Nsb-Nop-Nop-Nsb-Nsb] |  | 15.0% (ν/ν) |  |  |  |  |  | improved cell viability compared to XT Formula alone |  |  |  |  |  |  |  | produced the greatest improvement in cell survival |  |
| OCCO [EG, ethylene glycol] |  |  |  |  |  |  |  |  |  |  |  |  |  |  |  |  | significant ice crystal formation |
